Experimental data as given in patent publication US10005815B2, “Biologically cleavable tetrapeptide linking agents” (Arrowhead Madison Inc., priority 2015, dated 2018).
Non-standard residues stand in square brackets, D forms with d. Residues, ends and D or L forms follow the SMILES beside them. *: point of attachment. CH3O(CH2CH2O)11CH2CH2CO = COCCOCCOCCOCCOCCOCCOCCOCCOCCOCCOCCOCCC(=O)*; X1 = O=[N+]([O-])c1ccc(NCCN*)cc1; Cit = NC(=O)NCCC[C@H](N)C(=O)O

Assays:
Assay type in all cases: biochemical
human liver S9 extract = assay: Digestion with human liver S9 extract; details: normalized to compound 23
Protocol: (§1) Proteolytic digestion experiments were carried out at a fixed substrate concentration (0.51 μmol) using liver lysosomal (enzyme) extract (0.45 μg/μL) in a 25 mM MES solution buffered to pH 5 containing 1% CHAPS and 1.8 mM DTT incubated at 37° C. Enzyme extract was activated in the presence of DTT for 15 minutes at 37° C. prior to addition of AENA labeled peptide substrates. At various time points, up to 26 h, 20 μL aliquots were removed and acidified to a pH of 3 with TFA. Analysis of fractions was performed using HPLC with a Aquasil C18 reverse-phase column (250×4.6, Thermofisher, Waltham, Mass.), monitored at 390 nm and 335 nm for AENA and EDANS respectively. Elution was performed with a gradient of acetonitrile and water buffered with 0.1% formic acid. Generation of unmodified reporter molecule was measured. To minimize freeze thaw cycles the lysosomal extract was dispensed into multiple aliquots prior to storage at −80° C. A new aliquot was employed for each study and used immediately upon thawing. Lysosomal extract was sourced from female Hans Wistar rats by differential density gradient centrifugation (Graham et al. 2000). Protein concentration of lysosomal extract was determined by standard BCA protein assay protocols. Compound 60 was used for normalization of velocity between experiments (Tables 2-4). […] Normalized sample velocity was calculated as: [(average compound 60 velocity[…]experimental compound 60 velocity)]×sample experimental velocity.
(§2) The observed rates of cleavage were not dependent on the source of proteolytic enzymes. The order of increasing velocity (23>30>37>42) was maintained when digested using commercially available rat and human liver S9 extract (Xenotech LLC, Lenexa, Kans.) (Table 5). Thus rates of cleavage are expected to be similar across different species and cell types.

rat liver S9 extract = assay: Digestion with rat liver S9 extract; details: normalized to compound 23
Protocol: as §1, §2

[1] = test system: liver lysosomal (enzyme) extract; assay: Digestion assay with rat liver lysosomal extract; details: for Sample Velocity / Normalized Velocity: AENA substrates; for Sample Velocity: linear rate of reporter generation at <50% completion, pH 5, 37° C.; for Normalized Velocity: normalized with compound 60 velocity (average 123.8 nmol/h); for Relative Velocity, Lysosomal Extract: normalized to compound 23
Protocol: Various amino acid combinations, tetrapeptides, were used to link various first moieties (R^5) and an AENA report group second compound (R^6) to form assay substrates (substrates). Cleavage rate of the peptides were evaluated by analysis of digestion of the substrates in the presence of rat lysosomal extract.
Reporting groups were coupled to the C-terminus of the peptide substrates as described above for UV-vis monitoring to explore the influence of amino acid sequence on kinetics of peptide degradation by HPLC. N-(2-aminoethyl)-4-nitroaniline (AENA) or N-(aminoethyl)-5-napthylamine-1-sulfonic acid (EDANS) were used as reporting groups for HPLC monitoring as neither absorptivity nor lambda maximum were affected for either after cleavage from the peptide. The N-terminus of each peptide substrate was modified with either methoxy polyethylene glycol (PEG12) or N-acetyl galactosamine (NAG(OR)3) (FIG. 1).
Proteolytic digestion experiments were carried out at a fixed substrate concentration (0.51 μmol) using liver lysosomal (enzyme) extract (0.45 μg/μL) in a 25 mM MES solution buffered to pH 5 containing 1% CHAPS and 1.8 mM DTT incubated at 37° C. Enzyme extract was activated in the presence of DTT for 15 minutes at 37° C. prior to addition of AENA labeled peptide substrates. At various time points, up to 26 h, 20 μL aliquots were removed and acidified to a pH of 3 with TFA. Analysis of fractions was performed using HPLC with a Aquasil C18 reverse-phase column (250×4.6, Thermofisher, Waltham, Mass.), monitored at 390 nm and 335 nm for AENA and EDANS respectively. Elution was performed with a gradient of acetonitrile and water buffered with 0.1% formic acid. Generation of unmodified reporter molecule was measured. To minimize freeze thaw cycles the lysosomal extract was dispensed into multiple aliquots prior to storage at −80° C. A new aliquot was employed for each study and used immediately upon thawing. Lysosomal extract was sourced from female Hans Wistar rats by differential density gradient centrifugation (Graham et al. 2000). Protein concentration of lysosomal extract was determined by standard BCA protein assay protocols. […]
Rate (also called velocity of degradation or velocity) was extrapolated during early linear turnover (Table 2). As used herein, rate is defined as the linear rate of reporting group generation at less than 50% completion (digestion rate was assumed to be linear at less than 50% completion). For substrates in which cleavage deviated from consecutive first order kinetics, the percent of reporting group liberated at the endpoint of digestion was used as a metric for comparison.

Row | Relative Velocity, HUMAN S9 Extract (human liver S9 extract) | Relative Velocity, RAT S9 Extract (rat liver S9 extract) | Sample Velocity [1] [nmol/h] | Normalized Velocity [1] [nmol/h] | % Released at Endpoint (21 hr) [1] [%] | Relative Velocity, Lysosomal Extract [1] | Compound
1 | 100.0 | 100.0 |  |  |  |  | COCCOCCOCCOCCOCCOCCOCCOCCOCCOCCOCCOCCC(=O)N[C@@H](Cc1ccccc1)C(=O)N[C@@H](CCCNC(N)=O)C(=O)N[C@@H](Cc1ccccc1)C(=O)N1CCC[C@H]1C(=O)NCCNc1ccc([N+](=O)[O-])cc1 [Compound 23, PEG12-FCitFP-AENA] ({CH3O(CH2CH2O)11CH2CH2CO}-F[Cit]FP-X1)
2 | 1.7 | 0.6 |  |  |  |  | COCCOCCOCCOCCOCCOCCOCCOCCOCCOCCOCCOCCC(=O)N[C@@H](CCCNC(N)=O)C(=O)N[C@@H](C)C(=O)N1CCC[C@H]1C(=O)NCCNc1ccc([N+](=O)[O-])cc1 [Compound 42, PEG12-CitAP-AENA]
3 | 7.1 | 3.3 | 11.8 | 13.5 | 44.2 | 7.0 | NAG(OAc)3-ACitAP- AENA [Compound 37]
4 | 45.7 | 28.3 | 54.3 | 62.0 | 96.5 | 32.1 | NAG(OAc)3-FCitAP- AENA [Compound 30]
